In ChEMBL document CHEMBL4052617, “Antibacterial activity of N-methylbenzofuro[3,2-b]quinoline and N-methylbenzoindolo[3,2-b]-quinoline derivatives and study of their mode of action” (2017):
Calls of active or inactive are those of the source. The calls are words filed in the database; no cut-off is given here.

How the values were obtained:
Enterococcus faecium [1] = test: Antibacterial activity against antibiotic-susceptile Enterococcus faecium ATCC 49624 after 18 hrs by brain heart infusion broth microdilution method; format: functional; details: ATCC 49624, 18 h
Enterococcus faecium [2] = test: Antibacterial activity against vancomycin-resistant Enterococcus faecium ATCC 700221 after 18 hrs by brain heart infusion broth microdilution method; format: functional; details: ATCC 700221, 18 h
Bacillus subtilis = test: Antibacterial activity against Bacillus subtilis 168 after 18 hrs by Mueller-Hinton broth microdilution method; format: functional; details: subsp. subtilis str. 168, 18 h
Staphylococcus aureus [3] = test: Antibacterial activity against Staphylococcus aureus ATCC 29213 after 18 hrs by cation adjusted Mueller-Hinton broth microdilution method; format: functional; details: ATCC 29213, 18 h
Staphylococcus aureus [4] = test: Antibacterial activity against methicillin-resistant Staphylococcus aureus ATCC BAA41 after 18 hrs by cation adjusted Mueller-Hinton broth microdilution method; format: functional; details: ATCC BAA41, 18 h
Escherichia coli [5] = test: Antibacterial activity against Escherichia coli ATCC 25922 after 18 hrs by Mueller-Hinton broth microdilution method; format: functional; details: ATCC 25922, 18 h
Escherichia coli [6] = test: Antibacterial activity against Escherichia coli ATCC […] expressing NDM-1 beta-lactamase after 18 hrs by Mueller-Hinton broth microdilution method; format: functional
Pseudomonas aeruginosa = test: Antibacterial activity against multidrug-resistant Pseudomonas aeruginosa ATCC BAA2108 after 18 hrs by Mueller-Hinton broth microdilution method; format: functional; details: ATCC BAA2108, 18 h
Klebsiella pneumoniae = test: Antibacterial activity against Klebsiella pneumoniae ATCC BAA2470 expressing NDM-1 beta-lactamase after 18 hrs by Mueller-Hinton broth microdilution method; format: functional; details: ATCC BAA2470, 18 h
[7] = biological target: T1, Cell division protein FtsZ (Staphylococcus aureus) (UniProt P0A031); test: Inhibition of recombinant N-terminal His6-tagged Staphylococcus aureus ATCC 29213 FtzS polymerization expressed in Escherichia coli BL21 (DE3) cells at 16 ug/ml in presence of GTP by fluorescence spectrometry method
T1 sequence (whole entry): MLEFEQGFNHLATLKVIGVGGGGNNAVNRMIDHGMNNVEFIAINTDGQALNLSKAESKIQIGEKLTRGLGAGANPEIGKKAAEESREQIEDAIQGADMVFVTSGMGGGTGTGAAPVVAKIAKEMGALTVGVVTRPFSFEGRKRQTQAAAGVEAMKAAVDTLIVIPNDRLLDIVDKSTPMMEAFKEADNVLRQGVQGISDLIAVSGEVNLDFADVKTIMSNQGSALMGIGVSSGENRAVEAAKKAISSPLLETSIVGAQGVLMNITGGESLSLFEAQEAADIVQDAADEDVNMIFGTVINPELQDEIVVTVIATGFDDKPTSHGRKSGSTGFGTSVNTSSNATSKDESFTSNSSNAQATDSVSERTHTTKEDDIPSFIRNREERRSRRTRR

[8] = biological target: T1, Cell division protein FtsZ (Staphylococcus aureus); test: (§1) Inhibition of recombinant N-terminal His6-tagged Staphylococcus aureus FtzS expressed in Escherichia coli BL21 (DE3) cells assessed as reduction in protein polymer thickness at 8 ug/ml preincubated for 10 mins followed by GTP addition after 15 mins by phosphotungstic acid staining based transmission electron microscopic method
[9] = biological target: T1, Cell division protein FtsZ (Staphylococcus aureus); test: as §1, with “protofilament bundling” for “polymer thickness”
[10] = biological target: T2, Cell division protein FtsZ (Bacillus subtilis (strain 168)) (UniProt P17865); test: Inhibition of Bacillus subtilis 168 GTPase activity of FtsZ assessed as increase in cell length at 2 ug/ml after 4 hrs by phase-contrast optical microscopic analysis; details: Bacillus subtilis subsp. subtilis str. 168
T2 sequence (whole entry): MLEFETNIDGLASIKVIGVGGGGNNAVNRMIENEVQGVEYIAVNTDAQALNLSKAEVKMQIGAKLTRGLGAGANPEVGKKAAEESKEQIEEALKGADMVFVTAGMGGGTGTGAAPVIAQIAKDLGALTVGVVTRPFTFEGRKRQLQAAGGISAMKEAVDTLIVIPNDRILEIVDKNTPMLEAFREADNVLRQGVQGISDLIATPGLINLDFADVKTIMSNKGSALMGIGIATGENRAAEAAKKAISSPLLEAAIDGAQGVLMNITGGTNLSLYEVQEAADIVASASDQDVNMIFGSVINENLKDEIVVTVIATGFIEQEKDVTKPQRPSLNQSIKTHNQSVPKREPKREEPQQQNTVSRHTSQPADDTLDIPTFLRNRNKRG

Staphylococcus aureus [11] = test: Bactericidal activity against methicillin-resistant Staphylococcus aureus ATCC BAA41 assessed as reduction in colony forming units at MIC concentration after 6 hrs by time kill assay; format: functional
Staphylococcus aureus [12] = test: Bactericidal activity against methicillin-resistant Staphylococcus aureus ATCC BAA41 assessed as reduction in colony forming units at 1 time MIC concentration after 24 hrs by time kill assay; format: functional
Staphylococcus aureus [13] = test: Bactericidal activity against methicillin-resistant Staphylococcus aureus ATCC BAA41 assessed as reduction in colony forming units at 2 times MIC concentration after 6 hrs by time kill assay; format: functional
Escherichia coli [14] = test: Bactericidal activity against Escherichia coli ATCC 25922 assessed as reduction in colony forming units at 4 times MIC concentration after 4 hrs by time kill assay; format: functional
Escherichia coli [15] = test: Bactericidal activity against Escherichia coli ATCC 25922 assessed as reduction in colony forming units at 1 to 2 times MIC concentration after 24 hrs by time kill assay; format: functional
[16] = biological target: T1, Cell division protein FtsZ (Staphylococcus aureus); test: Inhibition of recombinant N-terminal His6-tagged Staphylococcus aureus ATCC 29213 FtzS polymerization expressed in Escherichia coli BL21 (DE3) cells in presence of GTP by fluorescence spectrometry method
[17] = biological target: T1, Cell division protein FtsZ (Staphylococcus aureus); test: (§2) Inhibition of recombinant N-terminal His6-tagged Staphylococcus aureus ATCC 29213 FtzS GTPase activity expressed in Escherichia coli BL21 (DE3) cells assessed as reduction in GTP hydrolysis preincubated for 10 mins followed by GTP addition measured after 30 mins by CytoPhos reagent based assay
[18] = biological target: T1, Cell division protein FtsZ (Staphylococcus aureus); test: as §2, with “hydrolysis at 4 ug/ml” for “hydrolysis”
[19] = biological target: T1, Cell division protein FtsZ (Staphylococcus aureus); test: (§3) Inhibition of recombinant N-terminal His6-tagged Staphylococcus aureus ATCC 29213 FtzS GTPase activity expressed in Escherichia coli BL21 (DE3) cells assessed as reduction in GTP hydrolysis at 8 ug/ml preincubated for 10 mins followed by GTP addition after 30 mins by CytoPhos reagent based assay
[20] = biological target: T1, Cell division protein FtsZ (Staphylococcus aureus); test: as §3, with “16” for “8”, “addition measured” for “addition”

SMILES	MIC (Enterococcus faecium [1])	MIC (Enterococcus faecium [2])	MIC (Bacillus subtilis)	MIC (Staphylococcus aureus [3])	MIC (Staphylococcus aureus [4])	MIC (Escherichia coli [5])	MIC (Escherichia coli [6])	MIC (Pseudomonas aeruginosa)	MIC (Klebsiella pneumoniae)	other results
COc1ccc(Nc2c3ccccc3[n+](C)c3c2oc2ccccc23)cc1.[I-]	6 µg/mL	6 µg/mL	4 µg/mL	4 µg/mL	4 µg/mL	8 µg/mL	8 µg/mL	64 µg/mL	64 µg/mL	inhibition [7]: Active; inhibition [8]: Active; inhibition [9]: Active
C[n+]1c2ccccc2c(Nc2ccc(F)cc2F)c2[nH]c3ccccc3c21.[I-]	8 µg/mL	8 µg/mL	4 µg/mL	4 µg/mL	4 µg/mL	8 µg/mL	8 µg/mL	64 µg/mL	64 µg/mL	–
COc1ccccc1Nc1c2ccccc2[n+](C)c2c1[nH]c1ccccc12.[I-]	8 µg/mL	8 µg/mL	4 µg/mL	4 µg/mL	4 µg/mL	8 µg/mL	8 µg/mL	64 µg/mL	64 µg/mL	–
C[n+]1c2ccccc2c(Nc2ccc(Cl)cc2)c2oc3ccccc3c21.[I-]	8 µg/mL	8 µg/mL	6 µg/mL	6 µg/mL	6 µg/mL	12 µg/mL	12 µg/mL	> 64 µg/mL	> 64 µg/mL	–
Cc1ccc(Nc2c3ccccc3[n+](C)c3c2[nH]c2ccccc23)cc1C.[I-]	8 µg/mL	8 µg/mL	4 µg/mL	4 µg/mL	4 µg/mL	8 µg/mL	8 µg/mL	> 64 µg/mL	> 64 µg/mL	–
CCc1ccc(Nc2c3ccccc3[n+](C)c3c2[nH]c2ccccc23)cc1.[I-]	6 µg/mL	6 µg/mL	4 µg/mL	4 µg/mL	4 µg/mL	8 µg/mL	8 µg/mL	64 µg/mL	64 µg/mL	–
C[n+]1c2ccccc2c(Nc2cccc(F)c2)c2oc3ccccc3c21.[I-]	12 µg/mL	12 µg/mL	8 µg/mL	8 µg/mL	8 µg/mL	16 µg/mL	16 µg/mL	> 64 µg/mL	> 64 µg/mL	–
CCOc1ccc(Nc2c3ccccc3[n+](C)c3c2oc2ccccc23)cc1.[I-]	8 µg/mL	8 µg/mL	4 µg/mL	4 µg/mL	4 µg/mL	8 µg/mL	8 µg/mL	64 µg/mL	64 µg/mL	–
COc1ccc(Nc2c3ccccc3[n+](C)c3c2[nH]c2ccccc23)cc1.[I-]	4 µg/mL	4 µg/mL	2 µg/mL	2 µg/mL	2 µg/mL	6 µg/mL	6 µg/mL	48 µg/mL	48 µg/mL	Activity [10]: Active; Activity (Staphylococcus aureus [11]): 1 ×10² CFU/ml; Activity (Staphylococcus aureus [12]): 1 ×10³ CFU/ml; Activity (Staphylococcus aureus [13]): 1 ×10³ CFU/ml; inhibition (Escherichia coli [14]): Active; inhibition (Escherichia coli [15]): Active; inhibition [7]: Active; inhibition [16]: Dose-dependent effect; inhibition [8]: Active; inhibition [17]: Dose-dependent effect; inhibition [18]: 20%; inhibition [19]: 50%; inhibition [20]: 60%; inhibition [9]: Active
CCOc1ccccc1Nc1c2ccccc2[n+](C)c2c1[nH]c1ccccc12.[I-]	6 µg/mL	6 µg/mL	4 µg/mL	4 µg/mL	4 µg/mL	8 µg/mL	8 µg/mL	64 µg/mL	64 µg/mL	–
Cc1ccc(Nc2c3ccccc3[n+](C)c3c2oc2ccccc23)cc1.[I-]	8 µg/mL	8 µg/mL	6 µg/mL	6 µg/mL	6 µg/mL	12 µg/mL	12 µg/mL	> 64 µg/mL	> 64 µg/mL	–
Cc1ccccc1Nc1c2ccccc2[n+](C)c2c1oc1ccccc12.[I-]	12 µg/mL	12 µg/mL	8 µg/mL	8 µg/mL	8 µg/mL	16 µg/mL	16 µg/mL	> 64 µg/mL	> 64 µg/mL	–
CCc1ccc(Nc2c3ccccc3[n+](C)c3c2oc2ccccc23)cc1.[I-]	8 µg/mL	8 µg/mL	6 µg/mL	6 µg/mL	6 µg/mL	12 µg/mL	12 µg/mL	> 64 µg/mL	> 64 µg/mL	–
